Measurements from PubChem BioAssay AID248 (DTP/NCI, 2004).
Inconclusive results and toxic doses are left out. No stated cut-off is given here; in the data, active means T/C of 150% or more; inactive means T/C below 125%.

Tested on: L1210 leukemia ip in BDF1 mice, survival T/C
Assay: NCI In Vivo Anticancer Drug Screen. Data for tumor model L1210 Leukemia (intraperitoneal) in B6D2F1 (BDF1) mice
Conditions: endpoint: mean survival time, higher = longer survival
How it was run: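 Tumor was transplanted into mice, which were then dosed with test compound or vehicle alone. Survival was recorded for each group, and the treated figure was expressed relative to the control figure.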

[1] = dose: 50.0 mg/kg/injection, schedule: Q04DX003 (ip), vehicle: saline
[2] = dose: 100.0 mg/kg/injection, schedule: Q01DX001 (ip), vehicle: saline
[3] = dose: 100.0 mg/kg/injection, schedule: Q04DX003 (ip), vehicle: saline
[4] = dose: 200.0 mg/kg/injection, schedule: Q04DX003 (ip), vehicle: saline
[5] = dose: 200.0 mg/kg/injection, schedule: Q01DX001 (ip), vehicle: saline
[6] = dose: 400.0 mg/kg/injection, schedule: Q01DX001 (ip), vehicle: saline
[7] = dose: 100.0 mg/kg/injection, schedule: Q01DX009 (ip), vehicle: Klucel (hydroxypropylcellulose) (HPC)
[8] = dose: 200.0 mg/kg/injection, schedule: Q01DX009 (ip), vehicle: Klucel (hydroxypropylcellulose) (HPC)
[9] = dose: 100.0 mg/kg/injection, schedule: Q04DX002 (ip), vehicle: Klucel (hydroxypropylcellulose) (HPC)
[10] = dose: 200.0 mg/kg/injection, schedule: Q04DX002 (ip), vehicle: Klucel (hydroxypropylcellulose) (HPC)
[11] = dose: 400.0 mg/kg/injection, schedule: Q01DX009 (ip), vehicle: Klucel (hydroxypropylcellulose) (HPC)
[12] = dose: 100.0 mg/kg/injection, schedule: Q01DX009 (ip), vehicle: saline with Tween-80
[13] = dose: 200.0 mg/kg/injection, schedule: Q01DX009 (ip), vehicle: saline with Tween-80

Measured: T/C

c1ccc2c(C3CCCCN3)c[nH]c2c1 (centres undefined)
inactive: dose: 12.5 mg/kg/injection, schedule: Q01DX009 (ip), vehicle: saline 88 % of control | dose: 25.0 mg/kg/injection, schedule: Q01DX009 (ip), vehicle: saline 90 % of control | dose: 25.0 mg/kg/injection, schedule: Q04DX003 (ip), vehicle: saline 103 % of control | [1] 92 % of control | [2] 97 % of control

NCC(=O)NO
inactive: dose: 75.0 mg/kg/injection, schedule: Q01DX009 (ip), vehicle: saline 99 % of control | dose: 90.0 mg/kg/injection, schedule: Q01DX015 (ip), vehicle: water 92 % of control | [3] 108 % of control | dose: 133.0 mg/kg/injection, schedule: Q01DX015 (ip), vehicle: water 94 % of control | dose: 150.0 mg/kg/injection, schedule: Q01DX009 (ip), vehicle: saline 99 % of control | dose: 200.0 mg/kg/injection, schedule: Q01DX015 (ip), vehicle: water 94 % of control | [4] 106 % of control | dose: 300.0 mg/kg/injection, schedule: Q01DX009 (ip), vehicle: saline 92 % of control | dose: 400.0 mg/kg/injection, schedule: Q04DX003 (ip), vehicle: saline 98 % of control

CC1CN=C(c2ccc(NC(=O)c3ccc(C(=O)Nc4ccc(C5=NCC(C)N5)cc4)c(N)c3)cc2)N1 (centres undefined)
inactive: dose: 15.0 mg/kg/injection, schedule: Q01DX Z (ip), vehicle: saline 92 % of control | dose: 30.0 mg/kg/injection, schedule: Q01DX Z (ip), vehicle: saline 86 % of control | dose: 62.5 mg/kg/injection, schedule: Q01DX010 (oral), vehicle: saline 100 % of control | dose: 125.0 mg/kg/injection, schedule: Q01DX010 (oral), vehicle: saline 100 % of control | dose: 250.0 mg/kg/injection, schedule: Q01DX010 (oral), vehicle: saline 101 % of control | dose: 500.0 mg/kg/injection, schedule: Q01DX010 (oral), vehicle: saline 105 % of control

O=C(/C(=N/OCc1ccccc1)c1ccccc1)c1ccccc1
inactive: [2] 102 % of control | [5] 102 % of control | [6] 98 % of control

Nc1ccc2oc(=O)c(C(=O)O)cc2c1
inactive: dose: 100.0 mg/kg/injection, schedule: Q01DX001 (ip), vehicle: Klucel (hydroxypropylcellulose) (HPC) 112 % of control | dose: 200.0 mg/kg/injection, schedule: Q01DX001 (ip), vehicle: Klucel (hydroxypropylcellulose) (HPC) 89 % of control

CCN(C(=O)Nc1ccc(SC)cc1)c1ccccc1
inactive: [7] 103 % of control | [8] 108 % of control

C[C@]12CC[C@@H]3c4ccc(OC(=O)Cc5ccc(N(CCCl)CCCl)cc5)cc4CC[C@H]3[C@@H]1CC[C@@H]2OC(=O)Cc1ccc(N(CCCl)CCCl)cc1
inactive: dose: 100.0 mg/kg/injection, schedule: Q01DX001 (sc), vehicle: steriod suspending solution 97 % of control | dose: 200.0 mg/kg/injection, schedule: Q01DX001 (sc), vehicle: steriod suspending solution 102 % of control | dose: 400.0 mg/kg/injection, schedule: Q01DX001 (sc), vehicle: steriod suspending solution 102 % of control

CC(=O)OCc1ccc(Cl)c(Cl)c1
inactive: dose: 50.0 mg/kg/injection, schedule: Q01DX009 (ip), vehicle: saline sonified 100 % of control | dose: 100.0 mg/kg/injection, schedule: Q01DX009 (ip), vehicle: saline sonified 100 % of control | dose: 100.0 mg/kg/injection, schedule: Q04DX003 (ip), vehicle: saline sonified 101 % of control | dose: 200.0 mg/kg/injection, schedule: Q01DX009 (ip), vehicle: saline sonified 97 % of control | dose: 200.0 mg/kg/injection, schedule: Q04DX003 (ip), vehicle: saline sonified 107 % of control | dose: 400.0 mg/kg/injection, schedule: Q04DX003 (ip), vehicle: saline sonified 106 % of control

O=C(c1ccccc1)C1CCCC1
inactive: [9] 89 % of control | [10] 105 % of control

CN(CCC(=O)c1cccc2ccccc12)Cc1ccccc1
inactive: dose: 50.0 mg/kg/injection, schedule: Q01DX009 (ip), vehicle: Klucel (hydroxypropylcellulose) (HPC) 98 % of control | [7] 97 % of control | dose: 100.0 mg/kg/injection, schedule: Q04DX003 (ip), vehicle: Klucel (hydroxypropylcellulose) (HPC) 100 % of control | [8] 92 % of control | dose: 200.0 mg/kg/injection, schedule: Q04DX003 (ip), vehicle: Klucel (hydroxypropylcellulose) (HPC) 91 % of control | [11] 95 % of control | dose: 400.0 mg/kg/injection, schedule: Q04DX003 (ip), vehicle: Klucel (hydroxypropylcellulose) (HPC) 100 % of control

COC(=O)c1cc(N2CC2)nc(SC)n1
inactive: dose: 6.0 mg/kg/injection, schedule: Q01DX Z (ip), vehicle: methylcellulose (MC) 96 % of control | dose: 12.0 mg/kg/injection, schedule: Q01DX Z (ip), vehicle: methylcellulose (MC) 96 % of control

CONCC(=O)c1ccc(SC)cc1
inactive: [2] 106 % of control | [5] 97 % of control | [6] 100 % of control

COc1ccc(C(O)(c2ccccc2)C(OC(=O)c2cc([N+](=O)[O-])cc([N+](=O)[O-])c2)c2ccccc2)cc1 (centres undefined)
inactive: [12] 91 % of control | [13] 96 % of control | dose: 400.0 mg/kg/injection, schedule: Q01DX009 (ip), vehicle: saline with Tween-80 95 % of control

Nc1[nH]c(=S)nc2c1ncn2C1CCCC1
inactive: dose: 100.0 mg/kg/injection, schedule: Q01DX001 (ip), vehicle: other 93 % of control | dose: 200.0 mg/kg/injection, schedule: Q01DX001 (ip), vehicle: other 93 % of control

Cc1ccc(C(=O)N/N=C/c2c(O)ccc3ccccc23)cc1
inactive: [9] 89 % of control | [10] 89 % of control | dose: 400.0 mg/kg/injection, schedule: Q04DX002 (ip), vehicle: Klucel (hydroxypropylcellulose) (HPC) 96 % of control

CCCCCCCCCCCC(=O)c1ccccc1
inactive: [7] 86 % of control | [8] 91 % of control | [11] 94 % of control

O=c1nc2n(c(=O)[nH]1)CCN2
inactive: dose: 50.0 mg/kg/injection, schedule: Q01DX001 (ip), vehicle: carboxymethylcellulose (CMC) 101 % of control | dose: 100.0 mg/kg/injection, schedule: Q01DX001 (ip), vehicle: carboxymethylcellulose (CMC) 101 % of control | dose: 200.0 mg/kg/injection, schedule: Q01DX001 (ip), vehicle: carboxymethylcellulose (CMC) 104 % of control | dose: 400.0 mg/kg/injection, schedule: Q01DX001 (ip), vehicle: carboxymethylcellulose (CMC) 106 % of control

O=C(/C=C/C(=O)Nc1cccc(C2=NCCN2)c1)Nc1cccc(C2=NCCN2)c1
inactive: dose: 3.75 mg/kg/injection, schedule: Q01DX Z (ip), vehicle: carboxymethylcellulose (CMC) 94 % of control | dose: 7.5 mg/kg/injection, schedule: Q01DX Z (ip), vehicle: carboxymethylcellulose (CMC) 94 % of control | dose: 15.0 mg/kg/injection, schedule: Q01DX Z (ip), vehicle: carboxymethylcellulose (CMC) 94 % of control

CCNC(C)(C)C(=O)c1ccc(Cl)s1
inactive: [12] 96 % of control | dose: 100.0 mg/kg/injection, schedule: Q04DX003 (ip), vehicle: saline with Tween-80 100 % of control | [13] 96 % of control | dose: 200.0 mg/kg/injection, schedule: Q04DX003 (ip), vehicle: saline with Tween-80 100 % of control | dose: 400.0 mg/kg/injection, schedule: Q04DX003 (ip), vehicle: saline with Tween-80 98 % of control

Cc1ccc(-c2ccns2)cc1
inactive: [1] 105 % of control | [2] 100 % of control | [3] 108 % of control | [5] 104 % of control | [4] 103 % of control | [6] 104 % of control
